In US11000033B2, “Ketone or oxime compound, and herbicide” (NISSAN CHEMICAL CORPORATION, priority 2014, dated 2021):

What was measured:
Format in all cases: in vivo
[1] = test system: Echinochloa oryzacola Vasing.; test: Test Example 1: herbicidal activity, application before weed generation in submerged conditions (symbol A); details: application herbicide amount 320 g/ha
In short: (§1)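 In a flooded pot test with alluvial soil, the emulsion-formulated compound was diluted with water to a predetermined amount and applied to the floodwater immediately on the sowing day. Pots were held in a greenhouse at 25–30 °C for 3 weeks before each weed was rated.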

Monochoria vaginalis [2] = test: Test Example 1: herbicidal activity, application before weed generation in submerged conditions (symbol C); details: application herbicide amount 320 g/ha
In short: as §1

[3] = test system: Echinochloa oryzacola Vasing.; test: Test Example 2: herbicidal activity, application during weed generation in submerged conditions (symbol A); details: Table 23; application herbicide amount 320 g/ha; grade 0-5 by criteria of Test Example 1
In short: (§2)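 Flooded-soil post-emergence test: emulsion of compound, water-diluted to target rate, applied to paddy water surface at 1–2 leaf stage of mixed-sown weeds (alluvial soil, 4 cm water, 25–30° C. greenhouse); visual rating 3 weeks after application.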

Scirpus juncoides = test: Test Example 2: herbicidal activity, application during weed generation in submerged conditions (symbol B); details: Table 23; application herbicide amount 320 g/ha; grade 0-5 by criteria of Test Example 1
In short: as §2

Monochoria vaginalis [4] = test: Test Example 2: herbicidal activity, application during weed generation in submerged conditions (symbol C); details: Table 23; application herbicide amount 320 g/ha; grade 0-5 by criteria of Test Example 1
In short: as §2

Setaria viridis = test: Test Example 4: herbicidal effect by soil treatment (symbol G); details: 320 g/ha
In short: (§3)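 Seeds were sown in sterilized diluvial soil, covered with about 1.5 cm of soil, and the soil surface was sprayed with a water-diluted emulsion of the compound at a predetermined rate. Plants grew in a greenhouse at 25° C. to 30° C.; effects were scored visually 3 weeks after application.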

Abutilon theophrasti = test: Test Example 4: herbicidal effect by soil treatment (symbol M); details: 320 g/ha
In short: as §3

Galium spurium [5] = test: Test Example 4: herbicidal effect by soil treatment (symbol Q); details: 320 g/ha
In short: as §3

corn = test: Test Example 4: effect on crop by soil treatment (symbol c); details: 320 g/ha
In short: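 Sterilized diluvial soil, spot sowing, ~1.5 cm soil cover; greenhouse 25–30° C.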

wheat = test: Test Example 4: effect on crop by soil treatment (symbol e); details: 320 g/ha
In short: (§4)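 Plants grew in a 25° C. to 30° C. greenhouse after spot-sowing of seeds, including beet, rapeseed, wheat and rice, into sterilized diluvial soil under roughly 1.5 cm of cover soil.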

beet [6] = test: Test Example 4: effect on crop by soil treatment (symbol f); details: 320 g/ha
In short: as §4

Alopecurus myosuroides = test: Test Example 5: herbicidal effect by foliage application, plastic box (symbol J); details: 320 g/ha, 3 weeks after application
In short: (§5)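 Post-emergence spray; diluvial soil (sterilized), ~1.5 cm seed cover; greenhouse 25–30° C; 14-day-old plants; water-diluted emulsion at predetermined dose; visual score at 3 wk post-treatment.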

Lolium multiflorum Lam. = test: Test Example 5: herbicidal effect by foliage application, plastic box (symbol K); details: 320 g/ha, 3 weeks after application
In short: as §5

Amaranthus retroflexus = test: Test Example 5: herbicidal effect by foliage application, plastic box (symbol N); details: 320 g/ha, 3 weeks after application
In short: as §5

Galium spurium [7] = test: Test Example 5: herbicidal effect by foliage application, plastic box (symbol Q); details: 320 g/ha, 3 weeks after application
In short: as §5

rice plant = test: Test Example 5: effect on crop by foliage application, plastic box (symbol b); details: 320 g/ha, 3 weeks after application
In short: (§6)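 Diluvial soil, sterilized and boxed (21 × 13 × 7 cm), received spot-sown seed covered by about 1.5 cm soil; plants were then greenhouse-grown at 25–30° C.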

beet [8] = test: Test Example 5: effect on crop by foliage application, plastic box (symbol f); details: 320 g/ha, 3 weeks after application
In short: as §6

SMILES	Herbicidal effect grade, A: Echinochloa oryzacola Vasing. [1]	Herbicidal effect grade, C: Monochoria vaginalis (Monochoria vaginalis [2])	Herbicidal effect grade, A: Echinochloa oryzacola Vasing. [3]	Herbicidal effect grade, B: Scirpus juncoides (Scirpus juncoides)	Herbicidal effect grade, C: Monochoria vaginalis (Monochoria vaginalis [4])	G: Setaria viridis, herbicidal effect grade (Setaria viridis)	M: Abutilon theophrasti, herbicidal effect grade (Abutilon theophrasti)	Q: Galium spurium, herbicidal effect grade (Galium spurium [5])	c: corn, effect grade on crop (corn)	e: wheat, effect grade on crop (wheat)	f: beet, effect grade on crop (beet [6])	J: Alopecurus myosuroides, herbicidal effect (criteria 0-5) (Alopecurus myosuroides)	K: Lolium multiflorum Lam., herbicidal effect (criteria 0-5) (Lolium multiflorum Lam.)	N: Amaranthus retroflexus, herbicidal effect (criteria 0-5) (Amaranthus retroflexus)	Q: Galium spurium, herbicidal effect (criteria 0-5) (Galium spurium [7])	b: directly sowed rice plant, effect on crop (criteria 0-5) (rice plant)	f: beet, effect on crop (criteria 0-5) (beet [8])
CC(CC1CC(O)=C(c2c(C)cc(C)cc2C)C1=O)=NOCc1ccccc1Cl (stereo not shown) [1-113]	5 (Herbicidal ratio of 90% or more (almost completely withered))	4 (Herbicidal ratio of 70% or higher and lower than 90%)	3 (Herbicidal ratio of 40% or higher and lower than 70%)	3 (Herbicidal ratio of 40% or higher and lower than 70%)	0 (Herbicidal ratio of 5% or lower (almost no effect))	0 (Herbicidal ratio of 5% or lower (almost no effect))	0 (Herbicidal ratio of 5% or lower (almost no effect))	0 (Herbicidal ratio of 5% or lower (almost no effect))	0 (Herbicidal ratio of 5% or lower (almost no effect))	0 (Herbicidal ratio of 5% or lower (almost no effect))	0 (Herbicidal ratio of 5% or lower (almost no effect))	4 (Herbicidal ratio of 70% or higher and lower than 90%)	5 (Herbicidal ratio of 90% or more (almost completely withered))	0 (Herbicidal ratio of 5% or lower (almost no effect))	0 (Herbicidal ratio of 5% or lower (almost no effect))	4 (Herbicidal ratio of 70% or higher and lower than 90%)	0 (Herbicidal ratio of 5% or lower (almost no effect))
CON=C(C)CON=C(C)CC1CC(O)=C(c2c(C)cc(C)cc2C)C1=O (stereo not shown) [1-105]	5 (Herbicidal ratio of 90% or more (almost completely withered))	4 (Herbicidal ratio of 70% or higher and lower than 90%)	5 (Herbicidal ratio of 90% or more (almost completely withered))	5 (Herbicidal ratio of 90% or more (almost completely withered))	3 (Herbicidal ratio of 40% or higher and lower than 70%)	5 (Herbicidal ratio of 90% or more (almost completely withered))	1 (Herbicidal ratio of 5% or higher and lower than 20%)	0 (Herbicidal ratio of 5% or lower (almost no effect))	1 (Herbicidal ratio of 5% or higher and lower than 20%)	3 (Herbicidal ratio of 40% or higher and lower than 70%)	0 (Herbicidal ratio of 5% or lower (almost no effect))	5 (Herbicidal ratio of 90% or more (almost completely withered))	5 (Herbicidal ratio of 90% or more (almost completely withered))	0 (Herbicidal ratio of 5% or lower (almost no effect))	2 (Herbicidal ratio of 20% or higher and lower than 40%)	5 (Herbicidal ratio of 90% or more (almost completely withered))	0 (Herbicidal ratio of 5% or lower (almost no effect))
